# Data published in US11390604B2 (Hoffmann-La Roche Inc., priority 2019, dated 2022).
# Structures can show the parent of a compound that is named as a salt.
# System: Acinetobacter baumannii ATCC 17961
# Assay: Antimicrobial susceptibility testing: 90% growth inhibitory concentration (IC90) determination
# Type: cell-based
# Settings: ATCC17961, Acinetobacter baumannii ATCC 17961, Iso-Sensitest broth, read-out: ATCC 17961 IC90
# In short: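 Broth microdilution in Iso-Sensitest medium, twofold series (e.g. 50 to 0.097 μM final), ~5×10^5 CFU/ml inoculum, 35±2 °C. OD600 read every 20 min over 16 h. IC90 derived from growth inhibition during logarithmic phase.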
row,IC90,SMILES
1,758 nM,"CCc1cc(NC(=O)c2ncc(-c3cn(CC(F)F)nc3C(F)(F)F)n2C)ccc1C(=O)N1CCN(C(=O)[C@@H]2CCNC2)CC1 [Example 156, 5-[1-(2,2-difluoroethyl)-3-(trifluoromethyl)pyrazol-4-yl]-N-[3-ethyl-4-[4-[(3R)-pyrrolidine-3-carbonyl]piperazine-1-carbonyl]phenyl]-1-methylimidazole-2-carboxamide;formic acid]"
2,1000 nM,"CCc1cc(NC(=O)c2ncc(-c3cn(CC(F)F)nc3C(F)(F)F)n2C)ccc1C(=O)N1CCN(C(=O)NCC2(O)CNC2)CC1 [Example 157, 4-[4-[[5-[1-(2,2-difluoroethyl)-3-(trifluoromethyl)pyrazol-4-yl]-1-methylimidazole-2-carbonyl]amino]-2-ethylbenzoyl]-N-[(3-hydroxyazetidin-3-yl)methyl]piperazine-1-carboxamide;formic acid]"
3,1160 nM,"CCc1cc(NC(=O)c2ncc(-c3cn(Cc4cccnc4)nc3C(F)(F)F)n2C)ccc1C(=O)N1CCN(C(=O)C2CCNCC2)CC1 [Example 159, N-[3-ethyl-4-[4-(piperidine-4-carbonyl)piperazine-1-carbonyl]phenyl]-1-methyl-5-[1-(pyridin-3-ylmethyl)-3-(trifluoromethyl)pyrazol-4-yl]imidazole-2-carboxamide;formic acid]"
4,1280 nM,"CCc1cc(NC(=O)c2ncc(-c3cn(Cc4cccnc4)nc3C(F)(F)F)n2C)ccc1C(=O)N1CCN(C(=O)[C@@H]2CCNC2)CC1 [Example 161, N-[3-ethyl-4-[4-[(3R)-pyrrolidine-3-carbonyl]piperazine-1-carbonyl]phenyl]-1-methyl-5-[1-(pyridin-3-ylmethyl)-3-(trifluoromethyl)pyrazol-4-yl]imidazole-2-carboxamide;formic acid]"
5,347 nM,"CCn1cc(-c2cnc(C(=O)Nc3ccc(C(=O)N4CCN(C(=O)N[C@H]5C[C@@H](N)C5)CC4)c(Cl)c3)n2C)c(C(F)(F)F)n1 [Example 168, rac-N-((1s,3s)-3-aminocyclobutyl)-4-(2-chloro-4-(5-(1-ethyl-3-(trifluoromethyl)-1H-pyrazol-4-yl)-1-methyl-1H-imidazole-2-carboxamido)benzoyl)piperazine-1-carboxamide Hydrochloride]"
6,207 nM,"C=Cn1cc(-c2cnc(C(=O)Nc3ccc(C(=O)N4CCN(C(=O)NC5CNC5)CC4)c(Cl)c3)n2C)c(C(F)(F)F)n1 [Example 171, N-(azetidin-3-yl)-4-(2-chloro-4-(1-methyl-5-(3-(trifluoromethyl)-1-vinyl-1H-pyrazol-4-yl)-1H-imidazole-2-carboxamido)benzoyl)piperazine-1-carboxamide]"
7,146 nM,"Cn1c(-c2cn(C3CC3(F)F)nc2C(F)(F)F)cnc1C(=O)Nc1ccc(C(=O)N[C@H]2[C@@H]3CN(C(=O)C4CCNCC4)C[C@@H]32)c(Cl)c1 (stereo partly drawn) [Example 172, N-(3-chloro-4-(((1R,5S,6s)-3-(piperidine-4-carbonyl)-3-azabicyclo[3.1.0]hexan-6-yl)carbamoyl)phenyl)-5-(1-(2,2-difluorocyclopropyl)-3-(trifluoromethyl)-1H-pyrazol-4-yl)-1-methyl-1H-imidazole-2-carboxamide formate]"
8,250 nM,"Cn1c(-c2cn(CC3CCC3)nc2C(F)(F)F)cnc1C(=O)Nc1ccc(C(=O)N[C@H]2[C@@H]3CN(C(=O)C4CCNCC4)C[C@@H]32)c(Cl)c1 [Example 174, N-(3-chloro-4-(((1R,5S,6s)-3-(piperidine-4-carbonyl)-3-azabicyclo[3.1.0]hexan-6-yl)carbamoyl)phenyl)-5-(1-(cyclobutylmethyl)-3-(trifluoromethyl)-1H-pyrazol-4-yl)-1-methyl-1H-imidazole-2-carboxamide formate]"
9,155 nM,"C=C(F)Cn1cc(-c2cnc(C(=O)Nc3ccc(C(=O)N[C@H]4[C@@H]5CN(C(=O)N[C@@H]6CNC[C@H]6O)C[C@@H]54)c(Cl)c3)n2C)c(C(F)(F)F)n1 [Example 176, (1R,5S,6s)-6-(2-chloro-4-(5-(1-(2-fluoroallyl)-3-(trifluoromethyl)-1H-pyrazol-4-yl)-1-methyl-1H-imidazole-2-carboxamido)benzamido)-N-(trans-4-hydroxypyrrolidin-3-yl)-3-azabicyclo[3.1.0]hexane-3-carboxamide Formate]"

# More lines, now with the values behind:
row,SMILES,IC90
1,"CCc1cc(NC(=O)c2ncc(-c3cn(CC(F)F)nc3C(F)(F)F)n2C)ccc1C(=O)N1CCN(C(=O)C2CCNCC2)CC1 [Example 154, 5-[1-(2,2-difluoroethyl)-3-(trifluoromethyl)pyrazol-4-yl]-N-[3-ethyl-4-[4-(piperidine-4-carbonyl)piperazine-1-carbonyl]phenyl]-1-methylimidazole-2-carboxamide;formic acid]",955 nM
2,"CCc1cc(NC(=O)c2ncc(-c3cn(CC(F)F)nc3C(F)(F)F)n2C)ccc1C(=O)N1CCN(C(=O)C2(O)CCNCC2)CC1 [Example 155, 5-[1-(2,2-difluoroethyl)-3-(trifluoromethyl)pyrazol-4-yl]-N-[3-ethyl-4-[4-(4-hydroxypiperidine-4-carbonyl)piperazine-1-carbonyl]phenyl]-1-methylimidazole-2-carboxamide;formic acid]",1140 nM
3,"CCc1cc(NC(=O)c2ncc(-c3cn(Cc4cccnc4)nc3C(F)(F)F)n2C)ccc1C(=O)N1CCN(C(=O)C2CCN(C)CC2)CC1 [Example 158, N-[3-ethyl-4-[4-(1-methylpiperidine-4-carbonyl)piperazine-1-carbonyl]phenyl]-1-methyl-5-[1-(pyridin-3-ylmethyl)-3-(trifluoromethyl)pyrazol-4-yl]imidazole-2-carboxamide;formic acid]",1200 nM
4,"CCc1cc(NC(=O)c2ncc(-c3cn(Cc4cccnc4)nc3C(F)(F)F)n2C)ccc1C(=O)N1CCN(C(=O)C2(O)CCNCC2)CC1 [Example 160, N-[3-ethyl-4-[4-(4-hydroxypiperidine-4-carbonyl)piperazine-1-carbonyl]phenyl]-1-methyl-5-[1-(pyridin-3-ylmethyl)-3-(trifluoromethyl)pyrazol-4-yl]imidazole-2-carboxamide;formic acid]",1500 nM
5,"CCc1cc(NC(=O)c2ncc(-c3cn(Cc4cccnc4)nc3C(F)(F)F)n2C)ccc1C(=O)N1CCN(C(=O)NCC2(O)CNC2)CC1 [Example 162, 4-[2-ethyl-4-[[1-methyl-5-[1-(pyridin-3-ylmethyl)-3-(trifluoromethyl)pyrazol-4-yl]imidazole-2-carbonyl]amino]benzoyl]-N-[(3-hydroxyazetidin-3-yl)methyl]piperazine-1-carboxamide;formic acid]",1470 nM
6,"CCc1cc(NC(=O)c2ncc(-c3cn(CC#N)nc3C(F)(F)F)n2C)ccc1C(=O)NCCOCC(C)(C)N [Example 170, N-(4-((2-(2-amino-2-methylpropoxy)ethyl)carbamoyl)-3-ethylphenyl)-5-(1-(cyanomethyl)-3-(trifluoromethyl)-1H-pyrazol-4-yl)-1-methyl-1H-imidazole-2-carboxamide]",234 nM
7,"Cn1c(-c2cn(C3CCC3)nc2C(F)(F)F)cnc1C(=O)Nc1ccc(C(=O)N[C@H]2[C@@H]3CN(C(=O)C4CCNCC4)C[C@@H]32)c(Cl)c1 [Example 173, N-(3-chloro-4-(((1R,5S,6s)-3-(piperidine-4-carbonyl)-3-azabicyclo[3.1.0]hexan-6-yl)carbamoyl)phenyl)-5-(1-cyclobutyl-3-(trifluoromethyl)-1H-pyrazol-4-yl)-1-methyl-1H-imidazole-2-carboxamide formate]",234 nM
8,"Cn1c(-c2cn(CC#N)nc2C(F)(F)F)cnc1C(=O)Nc1ccc(C(=O)N[C@H]2[C@@H]3CN(C(=O)N[C@@H]4CNC[C@H]4O)C[C@@H]32)c(Cl)c1 [Example 175, (1R,5S,6s)-6-(2-chloro-4-(5-(1-(cyanomethyl)-3-(trifluoromethyl)-1H-pyrazol-4-yl)-1-methyl-1H-imidazole-2-carboxamido)benzamido)-N-(trans-4-hydroxypyrrolidin-3-yl)-3-azabicyclo[3.1.0]hexane-3-carboxamide Formate]",330 nM
9,"Cn1c(-c2cn(CC(F)F)nc2C(F)(F)F)cnc1C(=O)Nc1ccc(C(=O)N[C@H]2[C@@H]3CN(C(=O)N[C@H]4C[C@@H](N)C4)C[C@@H]32)c(Cl)c1 [Example 177, (1R,5S,6s)-N-(cis-3-aminocyclobutyl)-6-(2-chloro-4-(5-(1-(2,2-difluoroethyl)-3-(trifluoromethyl)-1H-pyrazol-4-yl)-1-methyl-1H-imidazole-2-carboxamido)benzamido)-3-azabicyclo[3.1.0]hexane-3-carboxamide]",229 nM
10,"Cn1c(-c2cn(C3CC3(F)F)nc2C(F)(F)F)cnc1C(=O)Nc1ccc(C(=O)NCC2(N)CC2)c(Cl)c1 (stereo not drawn) [Example 178, N-(4-(((1-aminocyclopropyl)methyl)carbamoyl)-3-chlorophenyl)-5-(1-(2,2-difluorocyclopropyl)-3-(trifluoromethyl)-1H-pyrazol-4-yl)-1-methyl-H-imidazole-2-carboxamide Formate]",86 nM

# Same assay, conditions: Acinetobacter baumannii, ATCC17961, read-out: ATCC 17961 IC90, Acinetobacter baumannii ATCC 17961, Iso-Sensitest broth
row,SMILES,IC90
1,"Cn1c(-c2cn(CC3CC3)nc2C(F)(F)F)cnc1C(=O)Nc1ccc(C(=O)N2CCN(C(=O)N[C@H]3C[C@@H](N)C3)CC2)c(Cl)c1 [Example 169, rac-N-((1s,3s)-3-aminocyclobutyl)-4-(2-chloro-4-(5-(1-(cyclopropylmethyl)-3-(trifluoromethyl)-1H-pyrazol-4-yl)-1-methyl-1H-imidazole-2-carboxamido)benzoyl)piperazine-1-carboxamide Hydrochloride]",245 nM
2,"Cn1c(-c2cn(CCF)nc2C(F)(F)F)cnc1C(=O)Nc1ccc(C(=O)N2CCN(C(=O)C3(O)CCCNC3)CC2)c(Cl)c1 (stereo not drawn) [Example 180, N-[3-chloro-4-[4-(3-hydroxypiperidine-3-carbonyl)piperazine-1-carbonyl]phenyl]-5-[1-(2-fluoroethyl)-3-(trifluoromethyl)pyrazol-4-yl]-1-methylimidazole-2-carboxamide; Trihydrochloride]",397 nM
